Common to all, as to assay type: functional, cell-based
The subject of assay [1] is HCC827. The experiment in a line: Antiproliferative activity against human HCC827 cells assessed as reduction in cell viability after 72 hrs by MTT assay. The following applies: HCC827, 72 h. In general terms: Tetrazolium assays rely on reduction of a dye to a coloured formazan, in cell work by metabolically active cells.
Assay [2] has as its system NCI-H1975. The assay can be described thus: Antiproliferative activity against human NCI-H1975 cells assessed as reduction in cell viability after 72 hrs by MTT assay. The following applies: NCI-H1975, 72 h.
The subject of assay [3] is NCI-H460. The experiment in a line: Antiproliferative activity against human NCI-H460 cells assessed as reduction in cell viability after 72 hrs by MTT assay. The following applies: NCI-H460, 72 h.

These results are taken from ChEMBL document CHEMBL4732067, “Synthesis and evaluation of new compounds bearing 3-(4-aminopiperidin-1-yl)methyl magnolol scaffold as anticancer agents for the treatment of non-small cell lung cancer via targeting autophagy” (Eur J Med Chem, 2021).

What is called IC50 is the concentration at which inhibition is half-maximal. For `C=CCc1ccc(OCCCCCO)c(-c2cc(CC=C)cc(CN3CCC(N)CC3)c2O)c1`, the IC50 is 8.71 µM in assay [1], 9.65 µM in assay [2] and 10.2 µM in assay [3].
Regarding `C=CCc1ccc(OCCCCO)c(-c2cc(CC=C)cc(CN3CCC(N)CC3)c2O)c1`, the 50% inhibitory concentration (IC50) in assay [1] worked out at 7.39 µM; in assay [2] it was 7.43 µM; in assay [3], 8.78 µM.
Take `C=CCc1ccc(OCCCCCOC(C)=O)c(-c2cc(CC=C)cc(CN3CCC(N)CC3)c2OCCCCCOC(C)=O)c1`: the half-inhibitory concentration (IC50) in assay [1], in assay [2] and in assay [3] was over 20 µM each time.
With `C=CCc1ccc(OCC)c(-c2cc(CC=C)cc(CN3CCC(NC(=O)[C@H](N)c4ccccc4)CC3)c2O)c1`, the half-inhibitory concentration (IC50) in assay [1] came to 1.23 µM; in assay [2], 7.31 µM; in assay [3] it was 1.46 µM.
The matching figures for `C=CCc1ccc(O)c(-c2cc(CC=C)cc(CN3CC[C@H](N)C3)c2O)c1`: over 20 µM, over 20 µM and over 20 µM.
Consider `C=CCc1ccc(OC)c(-c2cc(CC=C)cc(CN3CCC(N)CC3)c2O)c1`, for which the concentration for half-maximal inhibition (IC50) in assay [1] was 3.44 µM; in assay [2] it was 4.1 µM; in assay [3], 4.27 µM.
With `C=CCc1ccc(O)c(-c2cc(CC=C)cc(CN3CCC(NC(=O)[C@@H](C)N)CC3)c2O)c1`, the IC50 in assay [1], in assay [2] and in assay [3] was over 20 µM throughout.
As to `C=CCc1ccc(OCC)c(-c2cc(CC=C)cc(CN3CCC(NC(=O)[C@@H](N)CO)CC3)c2O)c1`, the IC50 stood at 5.42 µM in assay [1], 6.98 µM in assay [2] and 6.15 µM in assay [3].
As to `C=CCc1ccc(O)c(-c2cc(CC=C)cc(Cn3cc(N)cn3)c2O)c1`, the IC50 was 15.4 µM in assay [1], over 20 µM in assay [2] and over 20 µM in assay [3].
Take `C=CCc1ccc(O)c(-c2cc(CC=C)cc(CN3CCC(NC(=O)CCCN)CC3)c2O)c1`: the half-inhibitory concentration (IC50) in assay [1], in assay [2] and in assay [3] was over 20 µM each time.
Turning to `C#CCOc1ccc(CC=C)cc1-c1cc(CC=C)cc(CN2CCC(N)CC2)c1O`, the concentration for half-maximal inhibition (IC50) in assay [1], in assay [2] and in assay [3] was over 20 µM throughout.
Turning to `C=CCc1ccc(O)c(-c2cc(CC=C)cc(CN3CCC(NC(=O)[C@H]4CCCN4)CC3)c2O)c1`, the half-maximal inhibitory concentration (IC50) in assay [1], in assay [2] and in assay [3] was over 20 µM in each case.
Regarding `C=CCc1ccc(O)c(-c2cc(CC=C)cc(CN3CCC(NC(=O)[C@H](N)CO)CC3)c2O)c1`, the IC50 was 9.05 µM in assay [1], 10.3 µM in assay [2] and 8.32 µM in assay [3].
For `C=CCc1ccc(O)c(-c2cc(CC=C)cc(CCN3CCC(N)CC3)c2O)c1`, the IC50 in assay [1], in assay [2] and in assay [3] was over 20 µM each time.
For the molecule `C=CCc1ccc(O)c(-c2cc(CC=C)cc(CN3CCC(NC(=O)[C@@H](N)c4ccccc4)CC3)c2O)c1`, the IC50 in assay [1] was found to be 12.3 µM; in assay [2], 15.9 µM; in assay [3] it was 15.8 µM.
The corresponding values for `C=CCc1ccc(O)c(-c2cc(CC=C)cc(CN3CCC(NC(=O)[C@H](C)N)CC3)c2O)c1` are over 20 µM, over 20 µM and 17.3 µM.
For the molecule `C=CCc1ccc(OC(C)C)c(-c2cc(CC=C)cc(CN3CCC(NC(=O)[C@H](N)c4ccccc4)CC3)c2O)c1`, the 50% inhibitory concentration (IC50) was determined as 1.56 µM in assay [1], 4.21 µM in assay [2] and 1.73 µM in assay [3].
As for `C=CCc1ccc(O)c(-c2cc(CC=C)cc(CN3CCC(NC(=O)[C@@H]4CCCN4)CC3)c2O)c1`, the IC50 in assay [1], in assay [2] and in assay [3] was over 20 µM throughout.
On to `C=CCc1ccc(OCCO)c(-c2cc(CC=C)cc(CN3CCC(N)CC3)c2O)c1`, for which the figures for the IC50 in assay [1], in assay [2] and in assay [3] were 4.34 µM, 6.84 µM and 6.16 µM, respectively.
As for `C=CCc1ccc(O)c(-c2cc(CC=C)cc(CN3CCC(NC(=O)CCCCCN)CC3)c2O)c1`, the 50% inhibitory concentration (IC50) in assay [1], in assay [2] and in assay [3] was over 20 µM each time.
